# Measured values reported in PubChem BioAssay AID192 (DTP/NCI, 2004).
# Several values for one entry are separate records, joined by “and”; a condition that tells them apart may be missing. Equal values may be shown once. Inconclusive results and toxic doses are left out.
# System: BDF1 mice, B16 melanoma ip, median survival T/C
# Test: NCI In Vivo Anticancer Drug Screen. Data for tumor model B16 Melanoma (intraperitoneal) in B6D2F1 (BDF1) mice
# Conditions: endpoint: median survival time, higher = longer survival
# Procedure, shortened: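 Each result divides a survival or tumor-size measurement in the compound-treated group by the same measurement in the vehicle group.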
# [1] = dose: 25.0 mg/kg/injection, schedule: Q01DX009 (ip), vehicle: saline with Tween-80
# [2] = dose: 50.0 mg/kg/injection, schedule: Q01DX009 (ip), vehicle: saline with Tween-80
# [3] = dose: 100.0 mg/kg/injection, schedule: Q01DX009 (ip), vehicle: saline with Tween-80
# [4] = dose: 100.0 mg/kg/injection, schedule: Q01DX009 (ip), vehicle: Klucel (hydroxypropylcellulose) (HPC)
# [5] = dose: 400.0 mg/kg/injection, schedule: Q01DX009 (ip), vehicle: Klucel (hydroxypropylcellulose) (HPC)
# [6] = dose: 50.0 mg/kg/injection, schedule: Q01DX009 (ip), vehicle: Klucel (hydroxypropylcellulose) (HPC)
# [7] = dose: 25.0 mg/kg/injection, schedule: Q04DX003 (ip), vehicle: saline with Tween-80
# [8] = dose: 50.0 mg/kg/injection, schedule: Q04DX003 (ip), vehicle: saline with Tween-80
# [9] = dose: 100.0 mg/kg/injection, schedule: Q04DX003 (ip), vehicle: saline with Tween-80
# [10] = dose: 12.5 mg/kg/injection, schedule: Q01DX009 (ip), vehicle: saline with Tween-80
# [11] = dose: 200.0 mg/kg/injection, schedule: Q01DX009 (ip), vehicle: Klucel (hydroxypropylcellulose) (HPC)
smiles,measurement,setting,value
C=CCSC(C)CC (stereo not drawn),T/C,[1],108 % of control
same,T/C,[2],119 % of control
same,T/C,[3],107 % of control
CCCN(CCC)C(=O)c1ccncc1,T/C,[4],93 % of control
same,T/C,[5],95 % of control
N#CCc1c(Cl)ccc(Cl)c1Cl,T/C,"dose: 6.25 mg/kg/injection, schedule: Q01DX009 (ip), vehicle: Klucel (hydroxypropylcellulose) (HPC)",104 % of control
same,T/C,"dose: 12.5 mg/kg/injection, schedule: Q01DX009 (ip), vehicle: Klucel (hydroxypropylcellulose) (HPC)",99 % of control
same,T/C,"dose: 25.0 mg/kg/injection, schedule: Q01DX009 (ip), vehicle: Klucel (hydroxypropylcellulose) (HPC)",95 % of control
same,T/C,[6],107 % of control
C=C1C(=O)OC2CC3(C)CC(O)C(O)C(=C)C3CC12 (stereo not drawn),T/C,[6],104 % of control
same,T/C,[4],101 % of control
CCOC(=O)C1=C(O)c2c(sc(C)c2C)N(S(=O)(=O)c2ccc(C)cc2)CC1,T/C,"dose: 12.5 mg/kg/injection, schedule: Q04DX003 (ip), vehicle: saline with Tween-80",116 % of control
same,T/C,[7],113 % of control
same,T/C,[8],111 % of control
same,T/C,[9],111 % of control
same,T/C,"dose: 200.0 mg/kg/injection, schedule: Q04DX003 (ip), vehicle: saline with Tween-80",108 % of control
Cc1c[nH]c(=O)[nH]c1=O,T/C,"dose: 32.0 mg/kg/injection, schedule: Q01DX009 (ip), vehicle: Klucel (hydroxypropylcellulose) (HPC)",97 % of control and 102 % of control
same,T/C,"dose: 32.0 mg/kg/injection, schedule: Q01DX009 (ip), vehicle: saline with Tween-80",91 % of control
same,T/C,"dose: 64.0 mg/kg/injection, schedule: Q01DX009 (ip), vehicle: Klucel (hydroxypropylcellulose) (HPC)",97 % of control
same,T/C,"dose: 64.0 mg/kg/injection, schedule: Q01DX009 (ip), vehicle: saline with Tween-80",100 % of control
same,T/C,"dose: 128.0 mg/kg/injection, schedule: Q01DX009 (ip), vehicle: Klucel (hydroxypropylcellulose) (HPC)",97 % of control and 103 % of control
same,T/C,"dose: 256.0 mg/kg/injection, schedule: Q01DX009 (ip), vehicle: Klucel (hydroxypropylcellulose) (HPC)",100 % of control and 103 % of control
same,T/C,"dose: 512.0 mg/kg/injection, schedule: Q01DX009 (ip), vehicle: Klucel (hydroxypropylcellulose) (HPC)",98 % of control and 103 % of control
same,T/C,"dose: 512.0 mg/kg/injection, schedule: Q01DX009 (ip), vehicle: saline with Tween-80",107 % of control
COC1=C(OC)C(=O)C(SC/C=C(\C)CCCC(C)CCCC(C)CCCC(C)C)=CC1=O (stereo not drawn),T/C,[10],108 % of control
same,T/C,[1],105 % of control
same,T/C,[2],110 % of control
same,T/C,[3],115 % of control
CC(C)C1=CC2=CCC3C(C)(C(N)=O)CCCC3(C)C2CC1CC#N (stereo not drawn),T/C,[9],102 % of control
same,T/C,"dose: 400.0 mg/kg/injection, schedule: Q04DX003 (ip), vehicle: saline with Tween-80",88 % of control
CCc1ccccc1NC(=O)C(c1ccccc1)c1ccccc1,T/C,[1],99 % of control
same,T/C,[2],97 % of control
same,T/C,[3],92 % of control
O=C(O)c1nnc(C(=O)O)nn1,T/C,"dose: 12.5 mg/kg/injection, schedule: Q01DX009 (ip), vehicle: water",101 % of control
same,T/C,"dose: 25.0 mg/kg/injection, schedule: Q01DX009 (ip), vehicle: water",96 % of control
same,T/C,"dose: 50.0 mg/kg/injection, schedule: Q01DX009 (ip), vehicle: water",106 % of control
same,T/C,"dose: 100.0 mg/kg/injection, schedule: Q01DX009 (ip), vehicle: water",100 % of control
Cc1cccc(C)c1NC(=O)C(Cl)c1ccccc1 (stereo not drawn),T/C,[4],103 % of control
same,T/C,[11],93 % of control
same,T/C,[5],100 % of control
CSCCC(C#N)c1ccccc1 (stereo not drawn),T/C,[2],88 % of control
same,T/C,[3],88 % of control
CC1=CC2=C(C=O)C(=O)[C@](C)(O)[C@@H](O)C2=CO1,T/C,"dose: 6.25 mg/kg/injection, schedule: Q01DX009 (ip), vehicle: saline with Tween-80",119 % of control
same,T/C,[10],108 % of control
same,T/C,[1],122 % of control
CCCCCOc1ccc(C(=O)CC(=O)OCC)cc1,T/C,[4],93 % of control
same,T/C,[11],106 % of control
same,T/C,[5],93 % of control
O=C(O)C(O)C(=O)O.[NH2-].[NH2-].[Pt+2],T/C,"dose: 1.0 mg/kg/injection, schedule: Q01DX009 (ip), vehicle: other",104 % of control
same,T/C,"dose: 8.0 mg/kg/injection, schedule: Q01DX009 (ip), vehicle: other",156 % of control and 175 % of control and 192 % of control
same,T/C,"dose: 16.0 mg/kg/injection, schedule: Q01DX009 (ip), vehicle: other",197 % of control and 288 % of control and 300 % of control
same,T/C,"dose: 32.0 mg/kg/injection, schedule: Q01DX009 (ip), vehicle: other",281 % of control
c1ccc(OCCC[P+](c2ccccc2)(c2ccccc2)c2ccccc2)cc1,T/C,"dose: 5.0 mg/kg/injection, schedule: Q01DX009 (ip), vehicle: saline",107 % of control
same,T/C,"dose: 10.0 mg/kg/injection, schedule: Q01DX009 (ip), vehicle: saline",105 % of control
same,T/C,"dose: 20.0 mg/kg/injection, schedule: Q01DX009 (ip), vehicle: saline",95 % of control
same,T/C,"dose: 40.0 mg/kg/injection, schedule: Q01DX009 (ip), vehicle: saline",97 % of control
Cc1cc2nc3[nH]c4ccccc4c3nc2cc1C,T/C,[1],97 % of control
same,T/C,[2],97 % of control
same,T/C,"dose: 200.0 mg/kg/injection, schedule: Q01DX009 (ip), vehicle: saline with Tween-80",86 % of control
CC(N)C(=O)NC(C(=O)O)C(C)O (stereo not drawn),T/C,"dose: 25.0 mg/kg/injection, schedule: Q01DX009 (ip), vehicle: saline",92 % of control
same,T/C,"dose: 50.0 mg/kg/injection, schedule: Q01DX009 (ip), vehicle: saline",100 % of control
same,T/C,"dose: 100.0 mg/kg/injection, schedule: Q01DX009 (ip), vehicle: saline",97 % of control
same,T/C,"dose: 200.0 mg/kg/injection, schedule: Q01DX009 (ip), vehicle: saline",102 % of control
same,T/C,"dose: 400.0 mg/kg/injection, schedule: Q01DX009 (ip), vehicle: saline",105 % of control
Cc1ccc(/C=N\N=C\c2ccc(C)cc2)cc1,T/C,[2],100 % of control
same,T/C,[3],88 % of control
S=c1sc2ccccc2n1CN(c1ccccc1)c1ccc2ccccc2c1,T/C,[7],109 % of control
same,T/C,[8],106 % of control
same,T/C,[9],93 % of control and 103 % of control
Clc1ccc(C(Cl)(Cl)Cl)cc1Cl,T/C,[6],103 % of control
same,T/C,"dose: 50.0 mg/kg/injection, schedule: Q04DX003 (ip), vehicle: Klucel (hydroxypropylcellulose) (HPC)",102 % of control
same,T/C,[4],92 % of control
same,T/C,"dose: 100.0 mg/kg/injection, schedule: Q04DX003 (ip), vehicle: Klucel (hydroxypropylcellulose) (HPC)",102 % of control
same,T/C,[11],96 % of control
same,T/C,"dose: 200.0 mg/kg/injection, schedule: Q04DX003 (ip), vehicle: Klucel (hydroxypropylcellulose) (HPC)",119 % of control
CCOc1ccnc(OCC)n1,T/C,[1],96 % of control
same,T/C,[2],101 % of control
same,T/C,[3],99 % of control
